Measured values taken from ChEMBL document CHEMBL1157539, “Thousands of chemical starting points for antimalarial lead identification” (Nature, 2010).

System: Plasmodium falciparum
Test: GSK_TCMDC: Inhibition of Plasmodium falciparum 3D7 in whole erythrocytes, using parasite LDH activity as an index of growth.
Assay type: functional, organism-based
Conditions: Plasmodium falciparum, 3D7

## COc1ccc2c(c1)[nH]c1c(/C=C/c3ccc([N+](=O)[O-])cc3)nccc12
  XC50: 858 nM

## COc1ccccc1CNCC(O)c1cc(C(F)(F)F)ccc1C(F)(F)F (configuration not stated)
  XC50: 944 nM

## CCN1CCC(N(Cc2ccc(-c3ccc(C(F)(F)F)cc3)cc2)C(=O)Cn2c(CCc3cccc(F)c3F)nc(=O)c3ccccc32)CC1
  XC50: 1060 nM

## CCN(CC)CCN(Cc1ccc(-c2ccc(C(F)(F)F)cc2)cc1)C(=O)Cn1c(CCc2cccc(F)c2F)nc(=O)c2sccc21
  XC50: 905 nM

## Cc1nc(N)nc(N)c1-c1ccc(Cl)cc1
  XC50: 767 nM

## CC(=O)Nc1ncc(C(=O)Nc2cccc(-c3ccc(-c4nc5cc(C(F)(F)F)ccc5[nH]4)s3)c2)s1
  XC50: 398 nM

## CCCCN(CCCC)Cc1cc(Nc2ccnc3cc(Cl)ccc23)ccc1O
  XC50: 17.2 nM

## COc1cc(Nc2ccc3cc(S(=O)(=O)N4CCCCC4C)ccc3n2)cc(OC)c1OC (configuration not stated)
  XC50: 1240 nM

## COc1ccc(NC(=O)Nc2cccc(-c3cccc(-c4nc5cccc(C)c5[nH]4)c3)c2)cc1
  XC50: 400 nM

## Cc1cc(N)cc2nc(-c3ccc(N)cc3)[nH]c12
  XC50: 892 nM

## COc1ccc(CCCON2C(=N)N=C(N)NC2(C)C)cc1
  XC50: 3.2 nM

## CN1CCN(CCCN(Cc2csc(-c3ccc(CNCc4ccccc4)cc3)n2)S(=O)(=O)c2ccccc2)CC1
  XC50: 773 nM

## O=C(NCc1ccccc1)c1ccc(C(=O)NCC2CNCCO2)cc1 (configuration not stated)
  XC50: 1140 nM

## O=C(Nc1cccc(CN2CCCN(Cc3ncc[nH]3)CC2)c1)c1ccc(-c2ccccc2)cc1
  XC50: 654 nM

## CC(Nc1ccc2c(c1)CCC2)C(=O)Nc1cc(C(F)(F)F)ccc1N1CCOCC1 (configuration not stated)
  XC50: 85.3 nM

## CC(C)(CN)c1nc(-c2ccc(Cl)c(O)c2)c(-c2ccnc(N)n2)[nH]1
  XC50: 981 nM

## CC1CCCC(C)N1C[C@@H](O)CNS(=O)(=O)c1cccc(C(F)(F)F)c1 (some centres not stated)
  XC50: 692 nM

## Cc1cc(NC(=O)Nc2ccc(C(C)C)cc2)c2ccccc2n1
  XC50: 662 nM

## Cc1cc(NC(=O)c2ccco2)ccc1OC1CCN(Cc2ccc(F)cc2)C1 (configuration not stated)
  XC50: 644 nM

## CCCN(CC1CC1)c1ncc(-c2cccc(CNCc3ccccc3O)c2)cn1
  XC50: 700 nM

## CS(=O)(=O)c1cccc(-c2cnc(N)c3cc(-c4ccc5c(c4)OCO5)ccc23)c1
  XC50: 1040 nM

## CC(C)(C(=O)Nc1ccc(N2CCC3(CCCN(CC4CC4)C3)CC2)c(Cl)c1)c1cccc(C(F)(F)F)c1
  XC50: 2000 nM

## Cc1ccc(C)c(CC(=O)N2CCC(n3c(C)nc4ccc(F)cc43)CC2)c1
  XC50: 193 nM

## CC(C)Cn1c(Sc2ccc(C#N)c([N+](=O)[O-])c2)nnc1-c1ccc(N(C)C)cc1
  XC50: 220 nM

## Cc1ccc(Cc2c[nH]c(NCCSCc3ccc(CN4CCOCC4)o3)nc2=O)cn1
  XC50: 1070 nM

## CCN1CCC(NCc2ccc(-c3ccc(Cl)cc3)cc2)CC1
  XC50: 1020 nM

## COc1cccc(C=CC(=O)N(CCN)Cc2ccccc2)c1
  XC50: 815 nM

## COc1ccc2cc(-c3nc(-c4c(Cl)cccc4Cl)[nH]c3-c3ccnc(NCCC4CCCN4C)c3)ccc2c1 (configuration not stated)
  XC50: 1030 nM

## COc1ccc(-c2cc3ncn(CC(=O)N4CCN(c5cccc(OC)c5)CC4)c(=O)c3s2)cc1
  XC50: 1060 nM

## COc1ccc2nccc([C@@H](O)CN3C4CCC3CC(NCc3ccc5c(n3)NC(=O)CS5)C4)c2n1 (some centres not stated)
  XC50: 934 nM

## O=C(NCCNc1ccnc2cc(Cl)ccc12)c1ccccc1F
  XC50: 655 nM

## CC(CN(C)C)C(=O)Nc1cccc(-c2ccc(-c3nc4ccccc4[nH]3)cc2)c1 (configuration not stated)
  XC50: 706 nM

## CCOc1ccccc1CCNCC1CCN(CC2CCCCC2)CC1
  XC50: 783 nM

## O=C(NC1CC1)c1cnc(N2CCN(Cc3c(F)cccc3Cl)CC2)c(Cl)c1
  XC50: 905 nM

## CC(C)(C)c1ccc(CN2CCC(NC(=O)c3ccc(-c4cccc(C(F)(F)F)c4)s3)CC2)cc1
  XC50: 359 nM

## NC1=NC(CCc2ccccc2)N(c2ccccc2)C(N)=N1 (configuration not stated)
  XC50: 77.1 nM

## O=C(/C=C/c1ccc(Cl)c(Cl)c1)NCCCCCN1CC[C@H](NC(=O)c2ccc3c(c2)OCO3)C1
  XC50: 942 nM

## Cc1cccc2nc(-c3ccc(-c4cccc(CNCCCN5CCCC5=O)c4)s3)[nH]c12
  XC50: 590 nM

## CC(C)(C)OC(=O)N1CCC(C2CCN(C(=O)OC(C)(C)C)CC2)CC1
  XC50: 1160 nM

## O=C(C=Cc1ccc(Cl)c(Cl)c1)NCCCCCN1CCCC(CCCNS(=O)(=O)c2cccc3cccnc23)C1 (configuration not stated)
  XC50: 1000 nM

## O=C(Nc1ccc(-c2ccc(-c3nc4cc(C(F)(F)F)ccc4[nH]3)s2)cc1)c1c[nH]cn1
  XC50: 670 nM

## Cc1ccc(-c2noc(=O)n2CC(=O)Nc2ccccc2-c2ccccc2)cc1
  XC50: 807 nM

## COc1ccc2nccc([C@@H](O)CN3CCC(NCc4cc5ccccc5nc4O)CC3)c2c1
  XC50: 182 nM

## COc1ccccc1C1CCN(C2CCC(NC(=O)/C=C/c3cc(F)c(F)cc3F)CC2)CC1 (configuration not stated)
  XC50: 1600 nM

## O=C(NCCSCc1c(F)cccc1Cl)c1cnc2c(c1)nc(-c1c[nH]c(-c3ccccc3)n1)n2CCc1c[nH]cn1
  XC50: 807 nM

## Cc1ccc(CN2CCCN(Cc3cccc(NC(=O)c4ccc(-c5ccccc5)cc4)c3)CC2)cc1C
  XC50: 1250 nM

## Cc1noc(C)c1-c1ccc2c(Nc3ccccc3C(C)(C)C)c(C(=O)NCc3ccccc3)cnc2c1
  XC50: 762 nM

## O=C1COc2ccc(CNC3CCC(O)(CCc4ccnc5cc6c(cc45)OCCO6)CC3)nc2N1 (configuration not stated)
  XC50: 931 nM

## CC(C)NCC(=O)Nc1cccc(C(=O)Nc2cccc(C(F)(F)F)c2)c1
  XC50: 273 nM

## CC(C)NCc1cccc(-c2ccc(NC(=O)c3ccc(C#N)cc3)cc2)c1
  XC50: 825 nM

## O=C(NCCNc1ccnc(Nc2ccc(F)cc2)n1)Nc1ccc2c(c1)OCO2
  XC50: 682 nM

## N#Cc1ccc2c(c1)CN(C1CCC(NC(=O)/C=C/c3cc(C(F)(F)F)cc(C(F)(F)F)c3)CC1)CCC2 (configuration not stated)
  XC50: 1390 nM

## CC(CCCC(=O)Nc1ccc(CC(C)NCCc2cccc(Cl)c2)cc1)NCCc1cccc(Cl)c1 (configuration not stated)
  XC50: 625 nM

## CCCc1ccc(NC(=O)c2cccc(CN3CCCN(Cc4cccc(C#N)c4)CC3)c2)cc1
  XC50: 976 nM

## CC1Cc2ccccc2N1S(=O)(=O)c1cc(OCC(F)(F)F)ccc1OCC(F)(F)F (configuration not stated)
  XC50: 645 nM

## CCCCCCCNC(=O)NCC1CCCN(CCCCCNC(=O)/C=C/c2ccc(Cl)c(Cl)c2)C1 (configuration not stated)
  XC50: 1040 nM

## O=C(NCc1cccc(C(F)(F)F)c1)c1ccc(CNC(=O)c2ccc(O)c(-c3ccc(Cl)c(Cl)c3)c2)cc1
  XC50: 843 nM

## CNC(=O)c1cnc(Nc2ccc(OCC(O)CN(C)C)cc2)nc1Nc1cccc(OC(C)C)c1 (configuration not stated)
  XC50: 137 nM

## COc1ccc(C(=O)N2CCN(c3ccc([N+](=O)[O-])c(NC4CC4)c3)CC2)cc1Br
  XC50: 797 nM

## COc1ccc2ncc(Cl)c(CCN3CCC(NCc4ccc5c(n4)NC(=O)CS5)CC3)c2c1
  XC50: 590 nM

## CCc1cn2c3c(cc(C(=O)N[C@@H](Cc4ccccc4)[C@H](O)CNC(C)(C)CCCC(C)C)cc13)N(C)S(=O)(=O)C2
  XC50: 240 nM

## CC(Oc1cc(-n2cnc3ccc(NC(=O)CCN4CCCCC4)cc32)sc1C(N)=O)c1ccccc1Cl (configuration not stated)
  XC50: 400 nM

## COc1ccc(CN2CCCC(Nc3ccc(F)c(F)c3)C2)c(O)c1 (configuration not stated)
  XC50: 1090 nM

## O=C(N[C@H]1CCN(Cc2ccc(OC3CCN(Cc4ccccc4)CC3)c(Cl)c2)C1)c1ccc(Cl)c(Cl)c1
  XC50: 814 nM

## CCCCCCCN(Cc1ccc(OC(C)(C)C(=O)OCC)cc1)C(=O)Nc1ccccc1OC(F)(F)F
  XC50: 966 nM

## CCC1CN2CCc3c([nH]c4ccccc34)C2CC1CC1=NCCc2c1[nH]c1ccc(OC)cc21 (configuration not stated)
  XC50: 641 nM

## C=CCn1cc(C2CCN(CCCCNC(=O)c3sc(-c4ccc(C(F)(F)F)cc4)nc3CO)CC2)c2cc(OC)ccc21
  XC50: 1040 nM

## Cc1cccc(C(=O)Nc2ccnc(N(C)CCCN(C)Cc3cccc(O)c3)c2)c1
  XC50: 967 nM

## C=C[C@H]1CN(CCCCCCC)CC[C@H]1C[C@@H](Cc1ccnc2ccc(OC)cc12)OC(=O)[C@](OC)(c1ccccc1)C(F)(F)F
  XC50: 876 nM

## COC(=O)c1ccc(CC(C)NCC(O)c2cccc(Br)c2)cc1 (configuration not stated)
  XC50: 694 nM

## CCN(CC)CCCn1c(N)c(-c2nc3ccccc3[nH]2)c2nc(C#N)c(C#N)nc21
  XC50: 267 nM

## Cc1cccc(C(=O)NC(NC(=S)Nc2ccc([N+](=O)[O-])cc2)C(Cl)(Cl)Cl)c1 (configuration not stated)
  XC50: 744 nM

## Cc1cc(NC2CCN(CC3CCCCC3)CC2)nc(Nc2ccccc2Cl)n1
  XC50: 642 nM

## Cc1cccc2nc(-c3ccc(-c4cccc(CNC5CCN(C)CC5)c4)s3)[nH]c12
  XC50: 182 nM

## Clc1ccc2c(NCCc3ccccc3)ccnc2c1
  XC50: 488 nM

## CC(C)(CNC(=O)[C@@H]1CCCN(CCOc2ccc(F)c(F)c2)C1)c1nc(-c2ccc(Cl)c(O)c2)c(-c2ccncc2)[nH]1
  XC50: 722 nM

## COc1cccc(CN2CCC(CCOC(c3ccccc3)c3ccc(Cl)cc3)CC2)c1O (configuration not stated)
  XC50: 713 nM

## Cc1cc(N2CCCN(C)CC2)nc(Nc2ccc(Br)cc2)n1
  XC50: 723 nM

## Cc1cc(N(C)C)nc(Nc2ccc(NS(=O)(=O)c3ccccc3)cc2)n1
  XC50: 1350 nM

## CCOC(=O)c1cccc(NC(=O)Nc2cc(C)nc3ccccc23)c1
  XC50: 286 nM

## CN1CCc2ccc(NC(=O)Nc3ccc(Cl)c(Cl)c3)cc2C1
  XC50: 724 nM

## O=C(Nc1ccc(OC2CCN(Cc3ccsc3)C2)c(Cl)c1)c1ccc2ncccc2c1 (configuration not stated)
  XC50: 966 nM

## OC1=C2C(=Nc3ccccc3SC2c2cccs2)c2ccccc21 (configuration not stated)
  XC50: 229 nM

## CS(=O)(=O)NCCCNCc1ccc(-c2ccc(-c3nc4cc(C(F)(F)F)ccc4[nH]3)s2)cc1
  XC50: 515 nM

## COc1ccc(-c2nc3cccnc3n2CC(=O)Nc2cc(Cl)c(Cl)cc2Cl)c(OC)c1
  XC50: 722 nM

## Fc1ccccc1-c1cc(Nc2ccncc2)nc(-c2cccnc2)n1
  XC50: 258 nM

## Oc1cc(Nc2ccnc3cc(-c4cccc(CN5CCCCC5)c4)ccc23)c(F)cc1Cl
  XC50: 102 nM

## CCn1c(Sc2ccc(C#N)c([N+](=O)[O-])c2)nnc1-c1cc(OC)cc(OC)c1
  XC50: 565 nM

## CCN(CCCN1CCCCC1)c1nccc(Nc2ccc(Cl)cc2)n1
  XC50: 1190 nM

## COc1cccc(CCc2c(CCNCCCCCCNCCc3ccccc3)ccc(OC)c2OC)c1
  XC50: 721 nM

## Cc1onc(-c2c(F)cccc2Cl)c1C(=O)Nc1ccccc1I
  XC50: 952 nM

## COc1cc(Cc2cnc(N)nc2N)ccc1OCc1ccc(-c2ccccc2C#N)cc1
  XC50: 940 nM

## O=C(Nc1ccc(OC2CCN(Cc3ccc(F)cc3)CC2)c(Cl)c1)c1ccco1
  XC50: 303 nM

## O=C(N[C@@H](Cc1ccccc1)C(=O)NC1CCCCCC1)c1ccc(O)c(-c2cccc(C(F)(F)F)c2)c1
  XC50: 735 nM

## COCCNCc1cccc(-c2ccc3c(Nc4ccc(Oc5cccnc5)cc4)ccnc3c2)c1
  XC50: 178 nM

## CC(CN)OCn1cnc2c(N)ncnc21 (configuration not stated)
  XC50: 231 nM

## COc1cc2c(cc1OC)CN(CCc1ccc(NC(=O)c3cc4cc(Cl)ccc4[nH]3)cc1)CC2
  XC50: 1020 nM
